How the values were obtained:
Type in all cases: cell-based
ERα [1] = target: T1, ERα (Homo sapiens, UniProt P03372); assay: Degradation of ERα in MCF-7 cells (immunoblotting, 4 h)
T1 sequence (P03372 1-595): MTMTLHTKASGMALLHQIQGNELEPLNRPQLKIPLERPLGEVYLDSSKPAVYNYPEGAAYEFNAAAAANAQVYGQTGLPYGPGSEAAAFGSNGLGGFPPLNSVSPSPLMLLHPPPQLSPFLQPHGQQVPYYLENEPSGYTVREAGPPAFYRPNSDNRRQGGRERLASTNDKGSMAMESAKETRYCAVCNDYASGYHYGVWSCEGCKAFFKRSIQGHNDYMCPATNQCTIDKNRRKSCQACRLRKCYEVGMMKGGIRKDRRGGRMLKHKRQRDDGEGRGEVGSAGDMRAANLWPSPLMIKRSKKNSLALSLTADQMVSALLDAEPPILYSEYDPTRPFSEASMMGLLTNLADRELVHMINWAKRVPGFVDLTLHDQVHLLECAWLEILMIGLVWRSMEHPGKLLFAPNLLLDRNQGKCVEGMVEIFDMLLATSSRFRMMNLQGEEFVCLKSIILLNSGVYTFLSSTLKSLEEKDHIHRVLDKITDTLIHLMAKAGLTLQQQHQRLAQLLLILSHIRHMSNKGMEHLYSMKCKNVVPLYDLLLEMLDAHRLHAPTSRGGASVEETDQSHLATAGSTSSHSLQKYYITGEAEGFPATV
Description: MCF-7 cells were inoculated into 6-well plates at a density of 3×10^5 cells/well and cultured at 37°C, 5% CO2 for 24h. After the cells were attached to the wall, 1µL of the compound solution in dimethyl sulfoxide (final concentration 0.15-1000nM) was added and continued to be cultured in incubator at 37°C with 5% CO2 for 4 h. After 4 h, the culture medium was discarded, and each well was washed once with pre-cooled 1×DPBS, and the cells were lysed with a mixture of 50 µL of RIPA lysis buffer (P0013B, Beyotime) and 1× protease inhibitor (P1005, Beyotime), and then centrifuged at 14,000 g for 30 min at 4°C after resting on ice for 20 min, and the supernatant was carefully collected to detect the protein level of ERα by protein immunoblotting (Immunoblotting).
Protein immunoblotting: The total protein concentration in the collected cell lysate supernatant was determined by BCA Protein Concentration Assay Kit (Enhanced) (P0009, Beyotime). According to the total protein concentration detected by BCA, the protein was adjusted to 1 µg/µL with RIPA lysis buffer and 5× SDS-PAGE protein loading buffer (MB01015, Genscript), and the protein was denatured by water bath at 95°C for 5 min, and then centrifuged after denaturation to enrich the condensate on the wall of the centrifuge tubes as a loading sample. […] At the end of electrophoresis, the proteins in the SDS-PAGE gels were transferred to a PVDF membrane at a constant voltage of 100 V for 60 min. After that, the PVDF membrane corresponding to ERα protein and internal reference protein was cut out and incubated in 1×QµickBlock blocking solution (P0252, Beyotime) for 30 min at room temperature on a shaker. […] Protein profiles were analyzed by Image Studio Lite analysis software for grayscale values. Grayscale correction values were calculated for each sample using the Formula: corrected grayscale value = grayscale value of the target protein /corresponding grayscale value of the internal reference. The degradation rate for the compounds was then calculated by comparing the corrected grayscale values of the compound group to the control group. Table 7 Degradation rate (%) of ERα by the PROTAC compounds of the present disclosure and positive control sample in MCF-7 cells

ERα [2] = target: T1, ERα; assay: Degradation of ERα in T-47D cells (immunoblotting, 4 h); set-up: host or cells: T-47D
Description: T-47D cells were inoculated into 6-well plates at a density of 3×10^5 cells/well and cultured at 37°C, 5% CO2 for 24 h. After the cells were attached to the wall, 1µL of the compound solution in dimethyl sulfoxide (final concentration 0.15-1000 nM) was added and continued to be cultured in the incubator with 5% CO2 at 37°C for 4 h. After 4 h, the culture medium was discarded, and each well was washed once with pre-cooled 1×DPBS, and the cells were lysed with a mixture of 50 µL of RIPA lysis buffer (P0013B, Beyotime) and 1× protease inhibitor (P1005, Beyotime), and then centrifuged at 14,000 g for 30 min at 4°C after resting on ice for 20 min, and the supernatant was carefully collected to detect the protein level of ERα by protein immunoblotting (Immunoblotting).

MCF-7 cells = assay: Inhibition of cell proliferation of MCF-7 cells (CCK-8, 9 days); settings: treated for 9 days, CCK-8 kit (Table 6)
Text: Test Example 4 Inhibitory effect of the PROTAC compounds disclosed in the present disclosure on cell proliferation of MCF-7 cells
The complete medium required for MCF-7 cells (source ATCC) was DMEM (gibco, Product number :11995-065) basal medium containing 10% fetal bovine serum. MCF-7 cells were inoculated in 96-well plates at a density of 800 cells/well, and different concentrations of the PROTAC compounds 1-55 provided in the embodiments of the present disclosure and a positive control sample ARV-471 (source: Innochem) were prepared to treat cells, and cells were treated at 37°C in a cell culture incubator with 5% CO2 for 9 days. Cell viability was detected using a CCK -8 kit (Beyotime , Product number: C0040) according to the manufacturer's instruction. […] Table 5 IC50 values for inhibition of the proliferation of MCF-7 cells by the PROTAC compounds of the present disclosure and positive control sample

| SMILES | Degradation rate (%) of ERα in MCF-7 cells (ERα [1]; 1nM compound) | Degradation rate (%) of ERα in MCF-7 cells (ERα [1]; 10nM compound) | Degradation rate (%) of ERα in T-47D cells (ERα [2]; 1nM compound) | Degradation rate (%) of ERα in T-47D cells (ERα [2]; 10nM compound) | IC50 (MCF-7 cells) | IC50 (MCF-7 cells; Homo sapiens, MCF7, 216 h) |
| --- | --- | --- | --- | --- | --- | --- |
| CN(C[C@H]1CC[C@H](C(=O)N2CCC3(CC2)COc2c3ccc3c2CN(C2CCC(=O)NC2=O)C3=O)CC1)[C@@H]1CCN(c2ccc([C@@H]3c4ccc(O)cc4CC[C@@H]3c3ccccc3)cc2)C[C@@H]1F (stereo partly drawn) [D12] | 39% | 61% | 55% | 81% |  |  |
| O=C1CCC(N2Cc3c(ccc4c3OCC43CCN(CC(=O)N4CC5(C4)CN(c4ccc([C@@H]6c7ccc(O)cc7CC[C@@H]6c6ccccc6)cc4)C5)CC3)C2=O)C(=O)N1 (stereo partly drawn) [B21] | 38% | 55% | 66% | 83% | 312 nM |  |
| O=C1CCC(N2Cc3c(ccc4c3OCC43CCN(C4CC5CCCC(C4)N5C(=O)C4CCN(c5ccc([C@@H]6c7ccc(O)cc7CC[C@@H]6c6ccccc6)cc5)CC4)CC3)C2=O)C(=O)N1 (stereo partly drawn) [D1] | 19% | 68% | 34% | 83% | 9.05 nM |  |
| O=C1CCC(N2Cc3c(ccc4c3OCC43CCN(C(=O)CN4CC5(C4)CN(c4ccc([C@@H]6c7ccc(O)cc7CC[C@@H]6c6ccccc6)cc4)C5)CC3)C2=O)C(=O)N1 (stereo partly drawn) [B20] | 42% | 64% | 47% | 73% | 1630 nM |  |
| O=C1CCC(N2Cc3c(ccc4c3OCC43CCN(C[C@H]4CC[C@H](C(=O)N5CCN(c6ccc([C@@H]7c8ccc(O)cc8CC[C@@H]7c7ccccc7)cc6)CC5)CC4)CC3)C2=O)C(=O)N1 (stereo partly drawn) [G18] | 63% | 77% | 49% | 78% | 129 nM |  |
| C[C@@H]1Cc2c([nH]c3ccccc23)[C@@H](c2c(F)cc(N3CCC4(CCN(C(=O)CN5CCC6(CC5)COc5c6ccc6c5CN(C5CCC(=O)NC5=O)C6=O)C4)CC3)cc2F)N1CC(F)F (stereo partly drawn) [A119] | 12% | 66% | 51% | 73% | 19.4 nM |  |
| O=C1CCC(N2Cc3cc4c(cc3C2=O)OC2(CC4)CN(C3CN(C4CCN(c5ccc([C@@H]6c7ccc(O)cc7CC[C@@H]6c6ccccc6)cc5)CC4)C3)C2)C(=O)N1 (stereo partly drawn) [A56] |  |  | 38% | 38% | 2790 nM |  |
| O=C1CCC(N2Cc3c(ccc4c3OCC43CCN(CC(=O)N4CCC5(CC4)CCN(c4ccc([C@@H]6c7ccc(O)cc7CC[C@@H]6c6ccccc6)cc4)CC5)CC3)C2=O)C(=O)N1 (stereo partly drawn) [A74] | 28% | 62% | 73% | 87% |  |  |
| O=C1CCC(N2Cc3cc4c(cc3C2=O)CCC2(CN(CC3CCC5(CC3)CCN(c3ccc([C@@H]6c7ccc(O)cc7CC[C@@H]6c6ccccc6)cc3)CC5)C2)O4)C(=O)N1 (stereo partly drawn) [A38] | -1% | -24% |  |  | 240 nM |  |
| O=C1CCC(N2Cc3cc4c(cc3C2=O)CCC2(CN(C3CN(C5CCN(c6ccc([C@@H]7c8ccc(O)cc8CC[C@@H]7c7ccccc7)cc6)CC5)C3)C2)O4)C(=O)N1 (stereo partly drawn) [A57] |  |  | 34% | 43% | 2790 nM |  |
| C[C@]12CC[C@@H]3c4ccc(O)cc4CC[C@H]3[C@@H]1CC[C@@H]2O [E2] |  |  |  |  |  | 34.8 nM |
| O=C1CCC(N2Cc3c(ccc4c3OCC43CCN(C[C@H]4CC[C@H](OC5CCN(c6ccc([C@@H]7c8ccc(O)cc8CC[C@@H]7c7ccccc7)cc6)CC5)CC4)CC3)C2=O)C(=O)N1 (stereo partly drawn) [G24] |  |  | 47% | 81% |  |  |

Results, then the compound that gave them:

| Degradation rate (%) of ERα in MCF-7 cells (ERα [1]; 1nM compound) | Degradation rate (%) of ERα in MCF-7 cells (ERα [1]; 10nM compound) | Degradation rate (%) of ERα in T-47D cells (ERα [2]; 1nM compound) | Degradation rate (%) of ERα in T-47D cells (ERα [2]; 10nM compound) | IC50 (MCF-7 cells) | IC50 (MCF-7 cells; Homo sapiens, MCF7, 216 h) | SMILES |
| --- | --- | --- | --- | --- | --- | --- |
| 57% | 80% | 74% | 89% | 80.2 nM |  | O=C1CCC(N2Cc3c(ccc4c3OCC43CCN(C(=O)CN4CCC(OC5CCN(c6ccc([C@@H]7c8ccc(O)cc8CC[C@@H]7c7ccccc7)cc6)CC5)CC4)CC3)C2=O)C(=O)N1 (stereo partly drawn) [K47] |
| 50% | 70% | 53% | 84% | 2320 nM |  | C[C@@H]1Cc2c(ccc3[nH]ncc23)C(c2ccc(N3CCC4(CC3)CC(N3CC[C@@H](N5CCC6(CC5)COc5c6ccc6c5CN(C5CCC(=O)NC5=O)C6=O)[C@@H](F)C3)C4)cn2)N1CC(F)(F)F (stereo partly drawn) [H58] |
| 40% | 67% | 41% | 68% | 14.9 nM |  | C[C@@H]1Cc2cc(O)ccc2C(c2c(F)cc(N3CCC4(CC3)CC(N3CCC(N5CCC6(CC5)COc5c6ccc6c5CN(C5CCC(=O)NC5=O)C6=O)[C@@H](F)C3)C4)cc2F)N1CC(F)F (stereo partly drawn) [I3] |
| 37% | 66% |  |  | 32400 nM |  | O=C1CCC(N2Cc3c(ccc4c3OCC43CCN(S(=O)(=O)[C@H]4CC[C@H](C(=O)N5CCN(c6ccc([C@@H]7c8ccc(O)cc8CC[C@@H]7c7ccccc7)cc6)CC5)CC4)CC3)C2=O)C(=O)N1 (stereo partly drawn) [G26] |
|  |  |  |  | 14.8 nM |  | CC1(C(=O)N2CCC(N3CCC4(CC3)COc3c4ccc4c3CN(C3CCC(=O)NC3=O)C4=O)CC2)CCN(c2ccc([C@@H]3c4ccc(O)cc4CC[C@@H]3c3ccccc3)cc2)CC1 (stereo partly drawn) [N 1] |
| -13% | -16% | -6% | -15% |  |  | O=C1CCC(N2C(=O)c3cc4c(cc3C2=O)OC2(CC4)CN(CC3CCN(c4ccc([C@@H]5c6ccc(O)cc6CC[C@@H]5c5ccccc5)cc4)CC3)C2)C(=O)N1 (stereo partly drawn) [H1] |
| -2% | 10% | 24% | 23% |  |  | O=C1CCC(N2C(=O)c3ccc4c(c3C2=O)OCC42CCN(C3CC4(CCN(c5ccc([C@@H]6c7ccc(O)cc7CC[C@@H]6c6ccccc6)cc5)CC4)C3)CC2)C(=O)N1 (stereo partly drawn) [L17] |
